Test results reported in US20190117586A1, “METHODS OF PREVENTING OR TREATING PARKINSON'S DISEASE BY THE FARNESYLATION OF PARIS” (The Johns Hopkins University, priority 2016, published 2019).

How the values were obtained:
cPK-KO mice = assay: Conditional adult parkin knockout (cPK-KO) mice; format: in vivo
Source text: In this setting, the level of farnesylated PARIS was monitored in the SN of cPK-KO mice fed with either chow diet or farnesol diet.
To generate Cre-flox conditional model of parkin knock out, an adeno-associated vector expressing GFP fused Cre recombinase (AAV-GFPCre) was stereotaxically introduced into the SN of exon 7 floxed parkin mice (parkin^Flox/Flox).

PPARγ = molecular target: T1, PPARγ (Homo sapiens, UniProt P37231); details: cited from earlier work
T1 sequence (P37231 1-505): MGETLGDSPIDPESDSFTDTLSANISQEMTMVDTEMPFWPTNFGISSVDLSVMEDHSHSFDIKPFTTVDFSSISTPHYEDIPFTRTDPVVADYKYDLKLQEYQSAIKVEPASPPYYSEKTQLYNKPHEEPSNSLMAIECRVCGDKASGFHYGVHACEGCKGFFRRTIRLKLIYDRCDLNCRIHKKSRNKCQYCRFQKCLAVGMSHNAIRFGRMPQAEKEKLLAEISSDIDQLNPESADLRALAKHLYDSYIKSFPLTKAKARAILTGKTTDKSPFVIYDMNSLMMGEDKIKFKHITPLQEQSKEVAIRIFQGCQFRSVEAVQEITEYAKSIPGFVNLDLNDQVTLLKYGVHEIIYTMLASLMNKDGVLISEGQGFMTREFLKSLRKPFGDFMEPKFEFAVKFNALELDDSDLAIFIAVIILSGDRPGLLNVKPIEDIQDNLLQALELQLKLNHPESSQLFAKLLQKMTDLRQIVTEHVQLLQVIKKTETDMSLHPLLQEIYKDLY

[1] = tested on: AAV-PARIS injected C57BL/6J mice; format: in vivo
PPARα and PPARγ = PPARα and PPARγ levels and target gene mRNA in farnesol fed mice; format: in vivo
PGC-1α target genes = assay: mRNA of PGC-1α target genes in SH-SY5Y cells by real-time qRT-PCR; format: cell-based
Method: (§1) The 9 compounds that activate the PGC-1α promoter in the presence of PARIS were evaluated to determine which compounds induce PGC-1α levels in SH-SY5Y cells (FIGS. 2A and 2B). […] The mRNA level of PGC-1α target genes including copper/zinc superoxide dismutase (SOD1), manganese SOD (SOD2), glutathione peroxidase (GPx1), catalase (CAT), nuclear respiratory factor-1 (NRF-1), mitochondrial transcription factor A (TFAM), mitochondrial uncoupling proteins (UCP2 and UCP3), and the oxidative phosphorylation regulators, ATP5b, cytochrome C (CytC) and cytochrome C oxidase (COX II and IV) were determined by real-time quantitative RT-PCR (qRT-PCR) (FIG. 2C).

PGC-1α promoter = PGC-1α promoter activity with PARIS WT or PARIS C631S mutant; format: cell-based; details: PARIS WT; not observed with PARIS C631S mutant
PGC-1α [2] = assay: PGC-1α levels in SH-SY5Y cells by immunoblot; format: cell-based; details: SH-SY5Y cells
Method: as §1
Geraniol or geranylgeraniol have no effect on PGC-1α levels (FIG. 3H).

PPARα = molecular target: T2, PPARα (Homo sapiens, UniProt Q07869); details: cited from earlier work
T2 sequence (Q07869 1-468): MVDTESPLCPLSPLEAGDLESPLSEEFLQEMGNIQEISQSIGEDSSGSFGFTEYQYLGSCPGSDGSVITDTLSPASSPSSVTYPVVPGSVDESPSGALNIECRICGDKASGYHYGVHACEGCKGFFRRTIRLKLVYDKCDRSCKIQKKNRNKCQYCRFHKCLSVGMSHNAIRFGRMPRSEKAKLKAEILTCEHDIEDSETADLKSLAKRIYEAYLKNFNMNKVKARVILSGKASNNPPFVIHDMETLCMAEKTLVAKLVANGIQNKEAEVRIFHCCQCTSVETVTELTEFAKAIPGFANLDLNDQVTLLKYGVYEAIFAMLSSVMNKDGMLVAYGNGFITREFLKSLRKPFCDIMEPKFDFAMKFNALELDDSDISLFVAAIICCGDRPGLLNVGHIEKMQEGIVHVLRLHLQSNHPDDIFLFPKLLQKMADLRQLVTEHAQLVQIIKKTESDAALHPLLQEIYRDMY

PARIS = assay: Subcellular fractionation of PARIS by immunoblot; format: cell-based
Method: To confirm that farnesylation of PARIS requires FTase, siRNA-FTase α knockdown or FTI-277 inhibition of FTase in the setting of PARIS overexpression was performed (FIG. 4C). […] To ascertain whether the farnesylation of PARIS affects the DNA binding activity of PARIS on the IRS motif of the PGC-1α promoter, a chromatin immunoprecipitation assay (ChIP) was performed from SH-SY5Y transfected with GFP-tagged PARIS WT or GFP-tagged PARIS C631S. […] To examine the possibility that the farnesylation of PARIS alters its subcellular distribution, subcellular fractionation was used to monitor the levels of PARIS in cytosolic, membrane, soluble nuclear, and chromatin-bound nuclear fractions by immunoblot analysis (FIG. 4F).

[3] = dietary farnesol in rodents; cited from earlier work
[4] = dietary farnesol in rats; cited from earlier work
PGC-1α [5] = assay: Parkin knockdown (lentiviral shRNA-parkin) SH-SY5Y cells; format: cell-based
Method: Knockdown of parkin leads to a 2.7 fold increase in the level of PARIS and a 65% decrease of PGC-1α (FIGS. 2D and 2E). […] The mRNA levels of PGC-1α and its target genes were assessed after knocking down parkin by real-time qRT-PCR.

[6] = farnesol diet from one week prior to injection

Q: Which “farnesylation of PARIS” value (cPK-KO mice; SN of cPK-KO mice, farnesol diet) does the source give for CC(C)=CCC/C(C)=C/CC/C(C)=C/CO [farnesol, (2E,6E)-3,7,11-trimethyldodeca-2,6,10-trien-1-ol] here?
A: enhanced farnesylation of PARIS

Q: What about the “decrements of PGC-1α and NRF-1 levels in the SN” value (cPK-KO mice; cPK-KO mice, farnesol diet) of the same molecule?
A: prevents the decrements of PGC-1α and NRF-1 levels

Q: What about the “loss of dopamine neurons in the SN” value (cPK-KO mice; cPK-KO, farnesol diet from 7 days prior to viral injection) of the same molecule?
A: completely and significantly prevents the loss of dopamine neurons

Q: And the “PGC-1α and NRF-1 levels in the SN of control mice” value (cPK-KO mice; control mice, farnesol diet)?
A: increases PGC-1α and NRF-1 levels

Q: And the “mRNA of PGC-1α, NRF-1, SOD2, TFAM, UCP2, CytC, COX II and COX 1 in the SN” value (cPK-KO mice; farnesol-fed versus normal chow-fed mice)?
A: upregulation

Q: What about the “activation of PPARγ in vitro” value (PPARγ) of the same molecule?
A: capable of activating

Q: And the “levels of PARIS WT or PARIS C631S” value ([1]; AAV injected mice, farnesol diet)?
A: did not affect

Q: And the amphetamine-induced rotation behavior ([1]; AAV-PARIS WT, farnesol diet)?
A: restoration of amphetamine-induced rotation behavior

Q: What about the “dopamine neuronal survival, AAV-PARIS C631S mice” value [1, 6] of the same molecule?
A: no effect

Q: And the “loss of dopamine neurons, AAV-PARIS WT mice” value [1, 6]?
A: completely prevents the loss of dopamine neurons

Q: And the “farnesylated PARIS in AAV-PARIS WT compared to AAV-PARIS C631S injected mice” value ([1]; farnesol fed mice, two weeks post-AAV injection)?
A: robustly observed

Q: What about the “mRNA levels of MCAD” value (PPARα and PPARγ; SN of farnesol fed mice) of the same molecule?
A: increases

Q: And the “mRNA levels of PPARγ and ACOX1” value (PPARα and PPARγ; SN of farnesol fed mice)?
A: decreases

Q: And the “PGC-1α and NRF-1 levels” value (PPARα and PPARγ; farnesol fed mice)?
A: increase

Q: What about the “levels of PPARα and PPARγ” value (PPARα and PPARγ; farnesol fed mice) of the same molecule?
A: no alteration

Q: What about the “PGC-1α, SOD1, and ATP5B mRNA levels” value (PGC-1α target genes) of the same molecule?
A: increased

Q: And the “mRNA level of NRF-1” value (PGC-1α target genes)?
A: robustly increased

Q: And the PGC-1α promoter activity (PGC-1α promoter)?
A: increase of PGC-1α promoter activity

Q: What about the “PGC-1α level by immunoblot analysis” value (PGC-1α [2]) of the same molecule?
A: significantly increased

Q: And the “activation of PPARα in vitro” value (PPARα)?
A: capable of activating

Q: And the “distribution of PARIS in cytoplasmic, membrane, and soluble nuclear fractions” value (PARIS)?
A: no change

Q: What about the “level of chromatin-bound PARIS” value (PARIS; PARIS WT or C631S) of the same molecule?
A: abolished the level of chromatin-bound PARIS WT but not PARIS C631S

Q: What about the cardioprotective effects [3] of the same molecule?
A: exhibits cardioprotective effects

Q: What about the “level of serum triglycerides, cholesterol” value [4] of the same molecule?
A: lowers

Q: And the “level of PGC-1α” value (PGC-1α [5])?
A: restores the level of PGC-1α

Q: And the “level of parkin and PARIS” value (PGC-1α [5])?
A: without affecting the level of parkin and PARIS

Q: And the “mRNA levels of SOD2, TFAM, ATP5B, CYTC, and COX II” value (PGC-1α [5]; qRT-PCR)?
A: significantly increased

Q: What about the “reduction of mRNA of PGC-1α and NRF-1” value (PGC-1α [5]; qRT-PCR) of the same molecule?
A: rescued
